Legend:
Type in all cases: cell-based, human
GMs = experiment: Intracellular Ca2+ level (Fluo-4 AM Ca2+ assay / Fura Red imaging); conditions: FIG. 23B
Protocol: To further investigate whether the change of intracellular Ca^2+ concentrations could be associated with hypoxia-driven enhanced exosome release, […], AM Ca^2+ imaging and Fluo-4 AM Ca^2+ assay were conducted with normoxic- and hypoxic-U251 cells.
To recapitulate the hypoxia-induced acidic TME, sodium-L-lactates (20 mM) were applied to the culture medium of GMs.

U251 cells = experiment: NTA exosome release assay
Protocol: To investigate the correlation between the malignant transition of hypoxic GMs and their production and release of exosomes, the secretion assay of exosomes was conducted via using nanoparticle tracking analysis (NTA). U251 cells were tested under normoxic or hypoxic condition.
Briefly, a represents Exo-FBS medium, b represents Sodium-L-lactate (20 mM), c represents BAPTA-AM, d represents BAPTA-AM with the pretreatment of Sodium-L-lactate (20 mM). All chemicals were dissolved in the Exo-FBS medium containing 1% DMSO. All data were shown as the mean±SEM. Significance level: **P<0.01, *P<0.05, hypoxia vs. normoxia, No-treatment vs. BAPTA-AM, MCT1 KD virus vs. Empty backbone virus (control 1), CD147 antisense vs. antisense control (control 2).

HIF-1α = system: HIF-1α

## C[C@H](O)C(=O)[O-].[Na+] [sodium-L-lactate]
GMs; GMs, sodium-L-lactate 20 mM, 100 μl added to 2 ml medium
  intracellular Ca2+ level: enhanced intracellular Ca^2+ level
U251 cells; GMs exposed to sodium-L-lactate 20 mM for 10 min, FIG. 23C
  exosome release: promote exosome release

## [Cl-].[Cl-].[Co+2] [CoCl2]
HIF-1α
  HIF-1α expression and nuclear localization: increased HIF-1α expression and enhanced nuclear localization of HIF-1α

## CC(=O)OCOC(=O)CN(CC(=O)OCOC(C)=O)c1ccccc1OCCOc1ccccc1N(CC(=O)OCOC(C)=O)CC(=O)OCOC(C)=O [BAPTA-AM]
GMs; GMs after sodium-L-lactate, BAPTA-AM 20 μM, 100 μl added to 2.1 ml medium
  intracellular Ca2+ level: distinctive decline in intracellular Ca^2+ level
U251 cells; GMs with induction of MCT1 OE and CD147 OE, BAPTA-AM 20 μM, 100 μl added to 2.1 ml medium, FIG. 23A
  exosome release: marked decline in exosome release
U251 cells; GMs, lactate-stimulated release, BAPTA-AM with pretreatment of sodium-L-lactate 20 mM, 10 min, FIG. 23C
  exosome release: blocked
U251 cells; hypoxia-enhanced release from U251 cells, intracellular Ca2+ chelated with BAPTA-AM (20 μM)
  exosome release: blocked the enhanced release of exosomes
